{"source": "patent US5326566A", "about": "“Use of dibutyl adipate and isopropyl myristate in topical and transdermal products” (Bristol-Myers Squibb Company, priority 1993, dated 1994)", "key": {"[1]": {"details": "literature (Martindale) for dimethyl sulfoxide; cited from earlier work"}, "[2]": {"details": "prior art skin permeation enhancers; cited from earlier work"}, "[3]": {"text": "Only skin that appeared normal was used.\nHalobetasol propionate is commercially available by Bristol-Myers Squibb as ULTRAVATE® Cream and ULTRAVATE® Ointment. ULTRAVATE® Cream is an oil-in-water emulsion containing isopropyl palmitate and isopropyl isostearate as emollients. The ULTRAVATE® Ointment is a nonaqueous emulsion of propylene glycol in a petrolatum base.\nIn a different human skin study, the in vitro skin penetration of halobetasol propionate from ULTRAVATE® Ointment, FN8-1114-16 cream and FN8-1114-13 cream, was evaluated (see Table 3, Study II). ULTRAVATE® Ointment was used as a control in order to normalize the data, and to assist in the comparison of skin penetration of different formulations when evaluated for skin penetration in different human skin."}, "[4]": {"details": "applied topically; more pronounced in occluded condition; cited from earlier work"}, "[5]": {"tested_on": "utriculi of rhino mouse skin", "assay": "Rhino mouse utriculi model (efficacy of tretinoin formulations, reduction of utriculi diameter)", "format": "in vivo", "details": "topical, once a day for five days, FIG. 4", "method": "Female rhino mice were obtained from the Skin and Cancer Hospital, Temple University, Philadelphia, Pennsylvania. Upon receipt, the rhino mice were treated with an anti-parasitic agent, trichlorfon (COMBOT®), to rid them of pinworms. It was administered in their drinking water for two weeks. An additional two weeks was allowed to pass without COMBOT® treatment before mice were placed on study. Animals were housed in accordance with the National Institute of Health guidelines and had free access to food and water. At the time of the study initiation, the mice were 9-14 weeks old.\nThe mice were individually housed in a plastic shoe box cage with corn cob bedding and placed in rooms illuminated with yellow lights, cycled for 12 hours on and 12 hours off during the study. […]\nThe sheets were then evaluated for changes in the sizes of the utriculi as follows: The maximum diameter of 20 representative utriculi per tissue sample were measured, using an IBM PC computer image measurement program (Microscience, Inc., Federal Way, Washington D.C.) and an Olympus microscope (200×magnification). Retinoid effects were evaluated as a percent reduction in uterine diameter by comparing mean diameter of the vehicle treated groups to that of formulation treated groups."}, "[6]": {"assay": "Saturation / degree of unsaturation of the oil phase", "format": "physicochemical", "details": "0.5 wt % DBA and 10 wt % IPM as solvents in the oil phase", "from_the_text": "A degree of unsaturation of 1.5 means that the amount of DBA, or DBA and IPM, present in the oil phase is one and a half times the amount required to dissolve the halobetasol propionate in the oil phase of the composition so that the final oil phase of the composition is saturated with respect to the halobetasol propionate, plus contains a 50% excess of such solvent(s).\nAn unsaturation value of 1.5 means the oil phase of the final composition contains more of the solvent system of the present invention than the minimum required to make such oil phase saturated, saturation of course being relative to the halobetasol propionate. The 1.5 unsaturation value indicates the oil phase of the final composition contains 11/2 times the amount of solvent system required to produce a final composition the oil phase of which is saturated with respect to halobetasol propionate (in other words, the oil phase of the final composition contains a 50% surplus of the solvent system of the invention)."}}, "note": "Like-named read-outs stand apart in the source and are kept apart here."}
{"smiles": "C[S+](C)[O-]", "note": "[dimethyl sulfoxide]", "values": [{"measurement": "side effects, in words", "setting": "[1]", "result": "causes in animals a foul taste and body odor, burning and erythema on the skin, a reduction in the relucency of the lens cortex and tissue necrosis"}]}
{"smiles": "CCCCCCCCCC[S+](C)[O-]", "note": "(stereo not drawn) [decyl methyl sulfoxide]", "values": [{"measurement": "skin permeation of oil-soluble drugs, in words", "setting": "[2]", "result": "generally do not increase skin permeation of oil-soluble drugs"}]}
{"smiles": "CC(C)CCCCCCCCCCCCCCC(=O)OC(C)C", "note": "[isopropyl isostearate]", "values": [{"measurement": "skin penetration enhancement of halobetasol propionate by solvent/enhancer, in words", "setting": "[3]", "result": "did not enhance the penetration of halobetasol propionate from ULTRAVATE® Cream as compared to ULTRAVATE® Ointment"}]}
{"smiles": "CCCCCCCCCCCCCCCC(=O)OC(C)C", "note": "[isopropyl palmitate]", "values": [{"measurement": "skin penetration enhancement of halobetasol propionate by solvent/enhancer, in words", "setting": "[3]; conclusions from Study I and Study II", "result": "did not enhance the penetration of halobetasol propionate from ULTRAVATE® Cream as compared to ULTRAVATE® Ointment"}]}
{"smiles": "CC(O)CO", "note": "(stereo not drawn) [PG, propylene glycol]", "values": [{"measurement": "skin penetration enhancement of halobetasol propionate by solvent/enhancer, in words", "setting": "[3]", "result": "does not improve the skin penetration of halobetasol propionate any further"}, {"measurement": "irritation/sensitization, in words", "setting": "[4]", "result": "can be a sensitizer and irritant when applied topically"}]}
{"smiles": "CN(C)C=O", "note": "[Dimethyl formamide, dimethyl formamide]", "values": [{"measurement": "side effects, in words", "setting": "[1]", "result": "cause a sensation of burning and erythema on the skin"}]}
{"smiles": "CCCCOC(=O)CCCCC(=O)OCCCC", "note": "[dibutyl adipate]", "values": [{"measurement": "efficacy of tretinoin formulations (rank order / activity in words)", "setting": "[5]", "result": "increases the efficacy and hence the topical bioavailability of tretinoin"}]}
{"smiles": "CCC(=O)O[C@]1(C(=O)CCl)[C@@H](C)C[C@H]2[C@@H]3C[C@H](F)C4=CC(=O)C=C[C@]4(C)[C@@]3(F)[C@@H](O)C[C@@]21C", "note": "[halobetasol propionate]", "values": [{"measurement": "saturated solution of halobetasol propionate in the oil phase", "setting": "[6]", "result": 0.05, "unit": "wt %"}]}
